From patent US12565640B2, “Method for inducing ureteric bud-like tissue” (Kyoto University, priority 2017, dated 2026) come the findings set out here.

Experiment [1] has as its system anterior primitive streak (APS) cells. As to the kind of experiment: Induction of anterior intermediate mesoderm cells from hiPSCs via anterior primitive streak (immunostaining, flow cytometry). The experiment is classed as cell-based, human. Particulars: for effect on induction efficiency / differentiation of OSR1^+GATA3^+ cells: added to the anterior intermediate mesoderm induction stage, 10 ng/ml BMP4 or 0.1 μM LDN193189. On the procedure: Undifferentiated hiPSCs/ESCs were plated at a density of 2.5×10^4 cells/cm^2 onto tissue culture plates in maintenance medium with 10 μM Y-27632 and iMatrix-511 silk. After 24 h, the cells were washed with PBS and treated with Essential 6 medium (Thermo Fisher Scientific) containing 100 ng/ml Activin A (R&D Systems) and 3 μM CHIR99021 (Stem RD) with or without 10 ng/ml bone morphogenetic protein (BMP)4 (PeproTech) for 24 h.
To induce anterior intermediate mesoderm, the anterior primitive streak cells were treated with 200 ng/ml fibroblast growth factor (FGF) 8 (Peprotech), 0.1 μM 4-[(E)-2-(5,6,7,8-Tetrahydro-5,5,8,8-tetramethyl-2-naphthalenyl)-1-propenyl]-benzoic acid (TTNPB; Santa Cruz Biotechnology), 1 μM A83-01 and 0.1 μM LDN193189 for 2 days. Then, the cells were replated onto Matrigel-coated plates at a density of 1×10^5 cells/cm^2 in the anterior intermediate mesoderm induction medium with 10 μM Y-27632 and incubated for an additional 24 h.
(§1) The cells were fixed with 4% PFA/PBS for 20 min at 4° C. After washing with PBS, the cells were blocked with 1% normal donkey serum (Millipore) and 3% bovine serum albumin (BSA; Nacalai Tesque)/PBST (PBS/0.25% Triton X-100) for 1 h at room temperature. Primary antibodies were diluted in blocking solution and incubated with samples overnight at 4° C. Secondary antibodies were incubated for 1 h at room temperature.
After dissociation with Accutase, the cells were fixed, permeabilized and blocked with a BD Cytofix/Cytoperm Kit (Becton Dickinson). Then the cells were incubated with primary antibodies diluted at 1:100 in blocking solution for 30 min at room temperature. After washing twice, the cells were incubated with secondary antibodies diluted at 1:500 in blocking solution for 30 min at room temperature. The cells were then analyzed using FACS AriaII cell sorter (Becton Dickinson).
(In general: A flow cytometer gives signals particle by particle.)

Experiment [2] concerns anterior intermediate mesoderm cells. Kind of experiment: Induction of Wolffian duct cells from anterior intermediate mesoderm cells (immunostaining, cell counts). Conditions: for differentiation of Wolffian duct cells (OSR1^−GATA3^+PAX2^+) from anterior intermediate mesoderm cells / Total cell numbers after treatment: 3D45 cells; for Total cell numbers after treatment: FIG. 2E, mean±s.d., n=3, before treatment 1.44±0.29; for number of GATA3^+ (Wolffian duct) cells: supplementation during Wolffian duct induction. The experiment is classed as cell-based, human. On the procedure: Anterior intermediate mesoderm cells were treated with Essential 6 medium containing 1 μM CHIR99021, 0.1 μM LDN193189, 200 ng/ml FGF8 and 100 ng/ml glial cell line-derived neurotrophic factor (GDNF; R&D Systems) with or without 0.1 μM TTNPB for 2 days to enhance Wolffian duct leading edge cell induction. Then, the cells were dissociated into single cells by gentle pipetting after treatment with Accutase (Innovative Cell Technologies). The cells were seeded onto low-attachment 96-well plates (Sumitomo Bakelite) at a density of 1×10^4 cells/well in Essential 6 medium with 100 ng/ml GDNF, 200 ng/ml FGF1 (R&D Systems), 0.1 μM TTNPB, 3 μM CHIR99021 and 10 μM Thiazovivin (Santa Cruz Biotechnology) and incubated for 2 days to induce mature Wolffian duct aggregates.
as §1

Where [3] appears, read: added to anterior intermediate mesoderm cells, immunostaining.

“Also recorded” adds a separate entry of the source.

Consider `Cc1cccc(-c2nn(C(=S)Nc3ccccc3)cc2-c2ccnc3ccccc23)n1` [A83-01, 3-(6-Methyl-2-pyridinyl)-N-phenyl-4-(4-quinolinyl)-1H-pyrazole-1-carbothioamide], for which the “differentiation of SOX17^+ definitive endoderm cells” value in experiment [1] (1 μM A83-01 added to FGF8 and TTNPB, immunostaining) was “diminished; also recorded: decreases the differentiation into definitive endoderm cells”. The “induction of anterior intermediate mesoderm-like cells (OSR1, GATA3 immunostaining)” value in experiment [1] (treatment of APS cells) is reported as “without inhibiting the induction of anterior intermediate mesoderm-like cells”.
Regarding `Cc1ccc(C2=CCC(C)(C)c3ccc(C#Cc4ccc(C(=O)O)cc4)cc32)cc1` [AGN193109], the “RET expression (Wolffian duct cell marker)” value in experiment [2] (setting [3]) is “diminished RET expression; also recorded: decreased the expression of RET”.
For the molecule `Cc1c[nH]c(-c2cnc(NCCNc3ccc(C#N)cn3)nc2-c2ccc(Cl)cc2Cl)n1` [CHIR99021, 6-[2-[4-(2,4-Dichlorophenyl)-5-(4-methyl-1H-imidazol-2-yl)pyrimidin-2-ylamino]ethylamino]pyridine-3-carbonitrile], the “differentiation of Wolffian duct cells (OSR1^−GATA3^+PAX2^+) from anterior intermediate mesoderm cells” value (from here on “differentiation of Wolffian duct cells”) in experiment [2] (immunostaining) is reported as “enhanced OSR1^−GATA3^+PAX2^− cell differentiation; also recorded: enhanced the differentiation”.
As to `O=C(Nc1cccc2cccnc12)c1ccc(N2C(=O)[C@@H]3[C@H](C2=O)[C@@H]2C=C[C@H]3C2)cc1` [IWR-1], in experiment [2] (setting [3]), the “GATA3 and PAX2 expressions” value was “diminished GATA3 and PAX2 expressions”; the OSR1 expression result was “prolonged OSR1 expression”. Also, the “differentiation of Wolffian duct cells” value in experiment [2] (immunostaining) is on record as “inhibited the Wolffian duct induction”.
Regarding `c1ccc2c(-c3cnn4cc(-c5ccc(N6CCNCC6)cc5)cnc34)ccnc2c1` [LDN193189, 4-(6-(4-(piperazin-1-yl)phenyl)pyrazolo[1,5-a]pyrimidin-3-yl)quinoline], in experiment [1], the “effect on induction efficiency / differentiation of OSR1^+GATA3^+ cells” value is “did not change the induction efficiency”. In addition, the “differentiation of Wolffian duct cells” value in experiment [2] (immunostaining) is “enhanced the Wolffian duct induction”.
On to `C/C(=C\c1ccc(C(=O)O)cc1)c1ccc2c(c1)C(C)(C)CCC2(C)C` [TTNPB, 4-[(E)-2-(5,6,7,8-Tetrahydro-5,5,8,8-tetramethyl-2-naphthalenyl)-1-propenyl]-benzoic acid], for which the “differentiation of Wolffian duct cells” value in experiment [2] (immunostaining) is “early Wolffian duct cells were stably generated”.

B1: BMP4: bone morphogenetic protein (BMP)4 (PeproTech) (protein, UniProt P12644 293-408, looked up)
Bone morphogenetic protein 4: SPKHHSQRARKKNKNCRRHSLYVDFSDVGWNDWIVAPPGYQAFYCHGDCPFPLADHLNSTNHAIVQTLVNSVNSSIPKACCVPTELSAISMLYLDEYDKVVLKNYQEMVVEGCGCR
With B1, the “induction rates of GATA3^+ cells” value in experiment [1] (FIG. 1H, 10 ng/ml BMP4 at APS induction stage, 0.1 μM LDN193189 at anterior IM induction stage, mean±s.d., n=4) is given as 69.1±13.9%. The “effect on induction efficiency / differentiation of OSR1^+GATA3^+ cells” value in experiment [1] was “inhibited the differentiation”. Moreover, the “OSR1^+GATA3^+ cell induction rate” value in experiment [1] (added to the anterior primitive streak induction stage) is reported as “around 70 % of the total cells obtained”. For the same molecule, the “effect on OSR1^+GATA3^+ cell induction” value in experiment [1] (added to the anterior primitive streak induction stage, 10 ng/ml BMP4, immunostaining) is given as “facilitated the OSR1^+GATA3^+ cell induction”. Moreover, in experiment [2] (immunostaining), the “differentiation of Wolffian duct cells” value was “suppressed Wolffian duct differentiation; also recorded: inhibited the differentiation of Wolffian duct cells”.

B2: FGF8: fibroblast growth factor (FGF) 8 (Peprotech) (protein, UniProt P55075 23-233, looked up)
Fibroblast growth factor 8: QEGPGRGPALGRELASLFRAGREPQGVSQQHVREQSLVTDQLSRRLIRTYQLYSRTSGKHVQVLANKRINAMAEDGDPFAKLIVETDTFGSRVRVRGAETGLYICMNKKGKLIAKSNGKGKDCVFTEIVLENNYTALQNAKYEGWYMAFTRKGRPRKGSKTRQHQREVHFMKRLPRGHHTTEQSLRFEFLNYPPFTRSLRGSQRTWAPEPR
In the case of B2, in experiment [2], the “Total cell numbers after treatment” value is reported as 4.69±0.65 ×10^5/cm^2 and the “number of GATA3^+ (Wolffian duct) cells” value is given as “increased the number of GATA3^+ cells”. Also, the “differentiation of Wolffian duct cells” value in experiment [2] (immunostaining) was “enhanced the Wolffian duct induction”.

B3: GDNF: glial cell line-derived neurotrophic factor (R&D Systems) (protein, UniProt P39905 78-211, looked up)
Glial cell line-derived …: SPDKQMAVLPRRERNRQAAAANPENSRGKGRRGQRGKNRGCVLTAIHLNVTDLGLGYETKEELIFRYCSGSCDAAETTYDKILKNLSRNRRLVSDKVGQACCRPIAFDDDLSFLDDNLVYHILRKHSAKRCGCI
For B3, in experiment [2], the “Total cell numbers after treatment” value is reported as 2.37±0.56 ×10^5/cm^2 and the “number of GATA3^+ (Wolffian duct) cells” value is recorded as “increased the number of GATA3^+ Wolffian duct cells”.
